Assay results from patent publication US12484584B2, “Methods and uses of a mixture comprising alpha-cypermethrin and dinotefuran for controlling bed bugs” (BASF AGRO B.V., priority 2020, dated 2025).
Read-outs that look alike come from different tables or passages of the source.

System: C. lectularius
Experiment: residual contact assay in treated glass vials, with Colby synergy analysis
Format: in vivo
Settings: Cimex lectularius, 72 h; for mortality at 1 ppm: 1 ppm alpha-cypermethrin; for mortality at 2 ppm: 2 ppm dinotefuran; for mortality at 4 ppm: 4 ppm dinotefuran; for mortality at 6 ppm: 6 ppm dinotefuran; for mortality at 8 ppm: 8 ppm dinotefuran
Procedure: Glass vials (20 mL scintillation) were treated with 445 μL of varying concentrations of α-cypermethrin dissolved in acetone, respectively dinotefuran or mixtures of α-cypermethrin and dinotefuran in the indicated ratios. Vials were turned on their sides and placed on an automated roller table. The vials were rolled (6 rpm) uncapped to allow an even coating of the treatment. After rolling, vials were allowed to completely dry for at least an hour. Each treatment was replicated five times. Approximately six bed bugs, Cimex lectularius, were placed into each vial and were exposed to treatments at room temperature for the duration of the study.
After dose response testing, assays combining two active ingredients were conducted using the same method described above. The rates used in the combination treatments for each active ingredient, α-cypermethrin and dinotefuran, were the same concentrations used when they were tested independently.
When applied in combination, the toxicological interaction between two compounds is classified based on the resultant impact on the observed effect. The interaction is termed antagonistic when the observed effect is less than the Colby expected mortality based on the responses of the two compounds applied independently at the same doses. When the observed effect of two compounds applied in combination is equal to that of the Colby expected mortality based on the responses of the two compounds applied independently, the relationship is described as additive. Finally, a synergistic interaction means that the effect of the two compounds applied in combination is greater than the Colby expected mortality based on the responses of the two compounds applied independently at the same doses.
Ataxia+mortality data at 48 hours were used to determine whether there was a synergistic effect in the combined use of α-cypermethrin and dinotefuran.
Abbott's correction for control mortality and the Colby method for testing synergy were used to analyze combination data. The method is as follows: Abbott's corrected mortality per observation (at 3 DAE)=[(% observed mortality−% control mortality)/(100%−% control mortality)]×100. Colby's expected mortality per combination observation=% mortality (A)+% mortality (B)−(% mortality (A)×% mortality (B))/100. Synergy ratio=% observed mortality/% Colby expected mortality.
Additive interactions have synergy ratios equal to 1, antagonistic interactions have synergy ratios of less than 1, and synergistic interactions have synergy ratios of greater than 1.

[1] = corrected for control mortality, read-out: Abbott's CM (Abbott's corrected mortality)
[2] = residual contact, read-out: Mortality (%) @ 72 h

| Structure (SMILES) | mortality at 1 ppm [1] [%] | mortality at 1 ppm [2] [%] | mortality at 2 ppm [1] [%] | mortality at 2 ppm [2] [%] | mortality at 4 ppm [1] [%] | mortality at 4 ppm [2] [%] | mortality at 6 ppm [1] [%] | mortality at 6 ppm [2] [%] | mortality at 8 ppm [1] [%] | mortality at 8 ppm [2] [%] |
| --- | --- | --- | --- | --- | --- | --- | --- | --- | --- | --- |
| CC1(C)C(C=C(Cl)Cl)C1C(=O)OC(C#N)c1cccc(Oc2ccccc2)c1 (racemic) [alpha-cypermethrin, racemate comprising (R)-α-cyano-3-phenoxybenzyl (1S, 3S)-3-(2,2-dichlorovinyl)-2,2-dimethylcyclopropanecarboxylate; (S)-α-cyano-3-phenoxybenzyl (1R, 3R)-3-(2,2-dichlorovinyl)-2,2-dimethylcyclopropanecarboxylate] | 24.1 | 26.7 |  |  |  |  |  |  |  |  |
| CNC(=N[N+](=O)[O-])NCC1CCOC1 (racemic) [dinotefuran, (RS)-1-methyl-2-nitro-3-(tetrahydro-3-furylmethyl) guanidine] |  |  | 3.4 | 6.7 | 3.4 | 6.7 | 3.4 | 6.7 | 3.4 | 6.7 |
